What follows are compounds tested against T1, HCV NS3 protease domain (Hepatitis C virus genotype 1b, UniProt Q9WMX2) (assay: biochemical). Details: Enzyme Assay 1 (HCV NS3 Protease Domain Peptide Cleavage Assay) activity, apparent Ki class.
T1 construct: The first 181 amino acids of NS3 (residues 1027-1207 of the viral polyprotein); hexa-histidine (C); made in house; host or cells: E. coli BL21/DE3 pLysS
T1 sequence (Q9WMX2 1027-1207, other chains not shown): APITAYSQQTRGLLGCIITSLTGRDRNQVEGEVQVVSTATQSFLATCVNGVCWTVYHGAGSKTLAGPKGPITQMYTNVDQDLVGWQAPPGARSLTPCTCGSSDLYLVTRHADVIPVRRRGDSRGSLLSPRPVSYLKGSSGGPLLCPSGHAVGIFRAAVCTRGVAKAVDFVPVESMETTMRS

`CCC[C@H](NC(=O)[C@@H]1C[C@]2(CC(c3cccc(Cl)c3)=NO2)CN1C(=O)[C@@H](NC(=O)CSc1cccc2cccnc12)C(C)(C)C)C(=O)C(=O)NC1CC1` [Compound 454] and `CCC[C@H](NC(=O)[C@@H]1C[C@]2(CC(c3cccc(Cl)c3)=NO2)CN1C(=O)[C@@H](NC(=O)c1c(OC)ccc2ccccc12)C(C)(C)C)C(=O)C(=O)NC1CC1` [Compound 435] fall in the same range of Ki: 100 to 500 nM for the first, 100 to 500 nM for the second.

First: CCC[C@H](NC(=O)[C@@H]1C[C@]2(CC(c3cccc(Cl)c3)=NO2)CN1C(=O)[C@@H](NC(=O)OCC1CCCC1)C(C)(C)C)C(=O)C(=O)NC1CC1 [Compound 14]
Second: CCC[C@H](NC(=O)[C@@H]1C[C@]2(CC(c3cccc(Cl)c3)=NO2)CN1C(=O)[C@@H](NC(=O)OC1CCCOC1)C(C)(C)C)C(=O)C(=O)NC1CC1 (some centres unmarked) [Compound 515]
The Ki of the first is higher: over 500 nM for the first, 100 to 500 nM for the second. The second binds more tightly here.

Compared with `CCC[C@H](NC(=O)[C@@H]1C[C@]2(CC(c3cccc(C(=O)O)c3)=NO2)CN1C(=O)[C@@H](NC(=O)O[C@H]1CCOC1)C(C)(C)C)C(=O)C(=O)NC1CC1` [Compound 481], `CCC[C@H](NC(=O)[C@@H]1C[C@]2(CC(c3cccc(OC(F)(F)F)c3)=NO2)CN1C(=O)[C@@H](NC(=O)O[C@H]1CCOC1)C(C)(C)C)C(=O)C(=O)NC1CC1` [Compound 244] is lower in Ki: over 500 nM for the first, 100 to 500 nM for the second. The second binds more tightly here.

`CCC[C@H](NC(=O)[C@@H]1C[C@]2(CC(c3cc(Cl)c(OC)cc3OC)=NO2)CN1C(=O)[C@@H](NC(=O)OCc1ccccc1)C(C)(C)C)C(=O)C(=O)NC1CC1` [Compound 110] and `CCC[C@H](NC(=O)[C@@H]1C[C@]2(CC(c3cccc(OC)c3OC)=NO2)CN1C(=O)[C@@H](NC(=O)OCc1ccccc1)C(C)(C)C)C(=O)C(=O)NC1CC1` [Compound 434] fall in the same range of Ki: 100 to 500 nM for the first, 100 to 500 nM for the second.

Compared with `CCC[C@H](NC(=O)[C@@H]1C[C@]2(CC(c3ccc(OC)cc3)=NO2)CN1C(=O)[C@@H](NC(=O)CC1CCOCC1)C(C)(C)C)C(=O)C(=O)NC1CC1` [Compound 16], `CCC[C@H](NC(=O)[C@@H]1C[C@]2(CC(c3ccc(Cl)cc3)=NO2)CN1C(=O)[C@@H](NC(=O)CC1CCCCC1)C(C)(C)C)C(=O)C(=O)NC1CC1` [Compound 55] is lower in Ki: over 500 nM for the first, 100 to 500 nM for the second. The second binds more tightly here.

`CCC[C@H](NC(=O)[C@@H]1C[C@]2(CC(c3ccc(F)c(C(F)(F)F)c3)=NO2)CN1C(=O)[C@@H](NC(=O)O[C@H]1CCOC1)C(C)(C)C)C(=O)C(=O)NC1CC1` [Compound 545] and `CCC[C@H](NC(=O)[C@@H]1C[C@]2(CC(c3ccc(C)c(C)c3)=NO2)CN1C(=O)[C@@H](NC(=O)O[C@H]1CCOC1)C(C)(C)C)C(=O)C(=O)NC1CC1` [Compound 36] fall in the same range of Ki: 100 to 500 nM for the first, 100 to 500 nM for the second.

First: CCC[C@H](NC(=O)[C@@H]1C[C@]2(CC(c3cccc(Cl)c3)=NO2)CN1C(=O)[C@@H](NC(=O)Cc1cc2c(cc1Cl)OCO2)C(C)(C)C)C(=O)C(=O)NC1CC1 [Compound 449]
Second: CCC[C@H](NC(=O)[C@@H]1C[C@]2(CC(c3cccc(Cl)c3)=NO2)CN1C(=O)[C@@H](NC(=O)N(C)CC)C(C)(C)C)C(=O)C(=O)NC1CC1 [Compound 432]
The Ki of the first is lower: 100 to 500 nM for the first, over 500 nM for the second. The first binds more tightly here.

`CCC[C@H](NC(=O)[C@@H]1C[C@]2(CC(c3c(C)oc4ccccc34)=NO2)CN1C(=O)[C@@H](NC(=O)CC1CCCCC1)C(C)(C)C)C(=O)C(=O)NC1CC1` [Compound 230] and `C#CCCC(NC(=O)[C@@H]1C[C@]2(CC(c3cccc(Cl)c3)=NO2)CN1C(=O)[C@@H](NC(=O)CC1CCCCC1)C(C)(C)C)C(=O)C(=O)NC1CC1` (some centres unmarked) [Compound 453] fall in the same range of Ki: 100 to 500 nM for the first, 100 to 500 nM for the second.

`CCC[C@H](NC(=O)[C@@H]1C[C@]2(CC(c3cc(F)cc(C(F)(F)F)c3)=NO2)CN1C(=O)O[C@H]1CCOC1)C(=O)C(=O)NC1CC1` [Compound 348] and `CCC[C@H](NC(=O)[C@@H]1C[C@]2(CC(c3ccc(OC)c(OC4CCCC4)c3)=NO2)CN1C(=O)[C@@H](NC(=O)O[C@H]1CCOC1)C(C)(C)C)C(=O)C(=O)NC1CC1` [Compound 8] cannot be ordered by Ki: over 500 nM for the first, over 500 nM for the second.

`CCC[C@H](NC(=O)[C@@H]1C[C@]2(CC(C(=O)c3ccc(Cl)cc3)=NO2)CN1C(=O)[C@@H](NC(=O)O[C@H]1CCOC1)C(C)(C)C)C(=O)C(=O)NC1CC1` [Compound 364] and `CCC[C@H](NC(=O)[C@@H]1C[C@]2(CC(C(=O)NCC)=NO2)CN1C(=O)[C@@H](NC(=O)O[C@H]1CCOC1)C(C)(C)C)C(=O)C(=O)NC1CC1` [Compound 146] cannot be ordered by Ki: over 500 nM for the first, over 500 nM for the second.

`CCC[C@H](NC(=O)[C@@H]1C[C@]2(CC(c3cccc(Cl)c3)=NO2)CN1C(=O)[C@@H](NC(=O)C(C)(C#N)Cc1ccccc1)C(C)(C)C)C(=O)C(=O)NC1CC1` (some centres unmarked) [Compound 538] and `CCC[C@H](NC(=O)[C@@H]1C[C@]2(CC(c3cccc(Cl)c3)=NO2)CN1C(=O)[C@@H](NC(=O)[C@H](OC)c1ccccc1)C(C)(C)C)C(=O)C(=O)NC1CC1` [Compound 187] cannot be ordered by Ki: over 500 nM for the first, over 500 nM for the second.

`CCC[C@H](NC(=O)[C@@H]1C[C@]2(CC(c3cccc(Cl)c3)=NO2)CN1C(=O)[C@@H](NC(=O)CC1=C(c2cccs2)CCC1=O)C(C)(C)C)C(=O)C(=O)NC1CC1` [Compound 402] and `CCC[C@H](NC(=O)[C@@H]1C[C@]2(CC(c3cccc(Cl)c3)=NO2)CN1C(=O)[C@@H](NC(=O)CCC(C)=O)C(C)(C)C)C(=O)C(=O)NC1CC1` [Compound 44] fall in the same range of Ki: 100 to 500 nM for the first, 100 to 500 nM for the second.

`CCC[C@H](NC(=O)[C@@H]1C[C@]2(CC(c3ccc(F)cc3)=NO2)CN1C(=O)OCC1c2ccccc2-c2ccccc21)C(=O)C(=O)NC1CC1` [Compound 533] and `CCC[C@H](NC(=O)[C@@H]1C[C@]2(CC(c3ccccc3Cl)=NO2)CN1C(=O)[C@@H](NC(=O)OCc1ccccc1)C(C)(C)C)C(=O)C(=O)NC1CC1` [Compound 164] cannot be ordered by Ki: over 500 nM for the first, over 500 nM for the second.

First: CCC[C@H](NC(=O)[C@@H]1C[C@]2(CC(c3ccc(F)cc3)=NO2)CN1C(=O)[C@@H](NC(C)=O)C(C)(C)C)C(=O)C(=O)NC1CC1 [Compound 331]
Second: CCC[C@H](NC(=O)[C@@H]1C[C@]2(CC(c3cccc(Cl)c3)=NO2)CN1C(=O)[C@@H](NC(=O)OCc1cccc(C)c1)C(C)(C)C)C(=O)C(=O)NC1CC1 [Compound 174]
The Ki of the first is higher: over 500 nM for the first, 100 to 500 nM for the second.

First: CCC[C@H](NC(=O)[C@@H]1C[C@@]2(CC(c3ccccc3)=NO2)CN1C(=O)[C@@H](NC(=O)[C@@H](NC(=O)c1cnccn1)C1CCCCC1)C(C)(C)C)C(=O)C(=O)NC1CC1 [Compound 428]
Second: CCC[C@H](NC(=O)[C@@H]1C[C@]2(CC(CC)=NO2)CN1C(=O)[C@@H](NC(=O)[C@@H](NC(=O)c1cnccn1)C1CCCCC1)C(C)(C)C)C(=O)C(=O)NC1CC1 [Compound 547]
The Ki of the first is higher: 100 to 500 nM for the first, under 100 nM for the second.

First: CC(C)(C)NC(=O)N[C@H](C(=O)N1C[C@@]2(CC(c3cccc(Cl)c3)=NO2)C[C@H]1C(=O)NC(CC1CCC1)C(=O)C(=O)NC1CC1)C(C)(C)C (some centres unmarked) [Compound 542]
Second: CCC[C@H](NC(=O)[C@@H]1C[C@]2(CC(c3cccc(Cl)c3)=NO2)CN1C(=O)[C@@H](NC(=O)[C@H]1CC[C@H](OC)CC1)C(C)(C)C)C(=O)C(=O)NC1CC1 [Compound 503]
The Ki of the first is lower: under 100 nM for the first, 100 to 500 nM for the second. The first binds more tightly here.

`CCCC1=NO[C@]2(C1)C[C@@H](C(=O)N[C@@H](CCC)C(=O)C(=O)NC1CC1)N(C(=O)[C@@H](NC(=O)OC1CCOC1)C(C)(C)C)C2` (some centres unmarked) [Compound 243] and `CCC[C@H](NC(=O)[C@@H]1C[C@]2(CC(c3cccc(Cl)c3)=NO2)CN1C(=O)[C@@H](Nc1ncc(C)cc1[N+](=O)[O-])C(C)(C)C)C(=O)C(=O)NC1CC1` [Compound 345] cannot be ordered by Ki: over 500 nM for the first, over 500 nM for the second.

With `CCC[C@H](NC(=O)[C@@H]1C[C@]2(CC(c3cccc(Cl)c3)=NO2)CN1C(=O)[C@@H](NC(=O)NCc1cc(OC)c(OC)c(OC)c1)C(C)(C)C)C(=O)C(=O)NC1CC1` [Compound 259] the Ki was 100 to 500 nM.

— US7964624B1, “Inhibitors of serine proteases” (priority 2005, dated 2011)
